Results: PubChem BioAssay AID248 (DTP/NCI, 2004)
Several values for one entry are separate records, joined by “and”; a condition that tells them apart may be missing. Equal entries are not always repeated. Inconclusive results and toxic doses are left out. No stated cut-off is given here; in the data, active means T/C of 150% or more; inactive means T/C below 125%.

Test system: L1210 leukemia ip in BDF1 mice, survival T/C
Experiment: NCI In Vivo Anticancer Drug Screen. Data for tumor model L1210 Leukemia (intraperitoneal) in B6D2F1 (BDF1) mice
Settings: endpoint: mean survival time, higher = longer survival
How it was run: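 Tumor was transplanted into mice, which were then dosed with test compound or vehicle alone. Survival was recorded for each group, and the treated figure was expressed relative to the control figure.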

[1] = dose: 100.0 mg/kg/injection, schedule: Q01DX009 (ip), vehicle: saline
[2] = dose: 100.0 mg/kg/injection, schedule: Q04DX003 (ip), vehicle: saline
[3] = dose: 200.0 mg/kg/injection, schedule: Q01DX009 (ip), vehicle: saline
[4] = dose: 200.0 mg/kg/injection, schedule: Q04DX003 (ip), vehicle: saline
[5] = dose: 400.0 mg/kg/injection, schedule: Q01DX009 (ip), vehicle: saline
[6] = dose: 400.0 mg/kg/injection, schedule: Q04DX003 (ip), vehicle: saline
[7] = dose: 75.0 mg/kg/injection, schedule: Q01DX001 (ip), vehicle: other
[8] = dose: 100.0 mg/kg/injection, schedule: Q01DX001 (ip), vehicle: saline
[9] = dose: 200.0 mg/kg/injection, schedule: Q01DX001 (ip), vehicle: saline
[10] = dose: 400.0 mg/kg/injection, schedule: Q01DX001 (ip), vehicle: saline
[11] = dose: 100.0 mg/kg/injection, schedule: Q04DX003 (ip), vehicle: saline with Tween-80
[12] = dose: 200.0 mg/kg/injection, schedule: Q04DX003 (ip), vehicle: saline with Tween-80
[13] = dose: 50.0 mg/kg/injection, schedule: Q01DX009 (ip), vehicle: saline
[14] = dose: 50.0 mg/kg/injection, schedule: Q01DX001 (ip), vehicle: saline
[15] = dose: 100.0 mg/kg/injection, schedule: Q01DX009 (ip), vehicle: Klucel (hydroxypropylcellulose) (HPC)
[16] = dose: 200.0 mg/kg/injection, schedule: Q01DX009 (ip), vehicle: Klucel (hydroxypropylcellulose) (HPC)
[17] = dose: 400.0 mg/kg/injection, schedule: Q01DX009 (ip), vehicle: Klucel (hydroxypropylcellulose) (HPC)
[18] = dose: 100.0 mg/kg/injection, schedule: Q04DX002 (ip), vehicle: Klucel (hydroxypropylcellulose) (HPC)
[19] = dose: 200.0 mg/kg/injection, schedule: Q04DX002 (ip), vehicle: Klucel (hydroxypropylcellulose) (HPC)
[20] = dose: 400.0 mg/kg/injection, schedule: Q04DX002 (ip), vehicle: Klucel (hydroxypropylcellulose) (HPC)

Measured: T/C

COC(=O)C(=O)NCc1cnccn1
inactive: [1] 105 % of control | [2] 93 % of control | [3] 110 % of control | [4] 107 % of control | [5] 111 % of control | [6] 100 % of control

CCCC(CNC1CCCCC1)OC(=O)c1ccc(N)cc1 (stereo not given)
inactive: [7] 96 % of control

O=[N+]([O-])c1cc(/C=N/N=C2c3ccccc3-c3ccccc32)ccc1Cl
inactive: [7] 86 % of control | dose: 300.0 mg/kg/injection, schedule: Q01DX001 (ip), vehicle: other 91 % of control

CCCCC(=O)N(CC(C)C)CC(C)C
inactive: dose: 25.0 mg/kg/injection, schedule: Q04DX002 (ip), vehicle: carboxymethylcellulose (CMC) 95 % of control | dose: 50.0 mg/kg/injection, schedule: Q01DX001 (ip), vehicle: carboxymethylcellulose (CMC) 95 % of control | dose: 50.0 mg/kg/injection, schedule: Q01DX009 (ip), vehicle: carboxymethylcellulose (CMC) 98 % of control and 120 % of control | dose: 50.0 mg/kg/injection, schedule: Q04DX002 (ip), vehicle: carboxymethylcellulose (CMC) 100 % of control and 102 % of control | dose: 50.0 mg/kg/injection, schedule: Q04DX003 (ip), vehicle: carboxymethylcellulose (CMC) 101 % of control | dose: 100.0 mg/kg/injection, schedule: Q01DX001 (ip), vehicle: carboxymethylcellulose (CMC) 97 % of control | dose: 100.0 mg/kg/injection, schedule: Q01DX009 (ip), vehicle: carboxymethylcellulose (CMC) 95 % of control and 103 % of control | dose: 100.0 mg/kg/injection, schedule: Q04DX002 (ip), vehicle: carboxymethylcellulose (CMC) 98 % of control and 103 % of control and 105 % of control | dose: 100.0 mg/kg/injection, schedule: Q04DX003 (ip), vehicle: carboxymethylcellulose (CMC) 95 % of control | dose: 200.0 mg/kg/injection, schedule: Q01DX001 (ip), vehicle: carboxymethylcellulose (CMC) 88 % of control | dose: 200.0 mg/kg/injection, schedule: Q01DX009 (ip), vehicle: carboxymethylcellulose (CMC) 103 % of control and 92 % of control | dose: 200.0 mg/kg/injection, schedule: Q04DX002 (ip), vehicle: carboxymethylcellulose (CMC) 92 % of control | dose: 200.0 mg/kg/injection, schedule: Q04DX003 (ip), vehicle: carboxymethylcellulose (CMC) 101 % of control | dose: 400.0 mg/kg/injection, schedule: Q04DX002 (ip), vehicle: carboxymethylcellulose (CMC) 102 % of control

O=S(=O)(C(Br)Br)C(Br)c1ccccc1 (stereo not given)
inactive: [8] 93 % of control | [9] 101 % of control | [10] 87 % of control

O=C(C1C2C=CC(C2)C1C(=O)N1CCCCC1)N1CCCCC1 (stereo not given)
inactive: dose: 25.0 mg/kg/injection, schedule: Q04DX003 (ip), vehicle: saline 103 % of control | dose: 50.0 mg/kg/injection, schedule: Q04DX003 (ip), vehicle: saline 95 % of control | [11] 111 % of control | [2] 98 % of control | [12] 86 % of control

CCOC(=N)c1cc([N+](=O)[O-])cc([N+](=O)[O-])c1
inactive: [8] 102 % of control | [9] 104 % of control | [10] 102 % of control

CC1(C)[C@H](C(=O)O)CC[C@]1(C)C(=O)O
inactive: dose: 100.0 mg/kg/injection, schedule: Q01DX001 (ip), vehicle: other 103 % of control | dose: 200.0 mg/kg/injection, schedule: Q01DX001 (ip), vehicle: other 103 % of control | dose: 400.0 mg/kg/injection, schedule: Q01DX001 (ip), vehicle: other 105 % of control

CCCCCCCCCCCCCCCCCC/C(CC)=N/Nc1ccc([N+](=O)[O-])cc1[N+](=O)[O-]
inactive: dose: 100.0 mg/kg/injection, schedule: Q01DX001 (ip), vehicle: Klucel (hydroxypropylcellulose) (HPC) 101 % of control | dose: 200.0 mg/kg/injection, schedule: Q01DX001 (ip), vehicle: Klucel (hydroxypropylcellulose) (HPC) 103 % of control | dose: 400.0 mg/kg/injection, schedule: Q01DX001 (ip), vehicle: Klucel (hydroxypropylcellulose) (HPC) 97 % of control

O=S1(=O)CCOCC1
inactive: dose: 100.0 mg/kg/injection, schedule: Q01DX009 (ip), vehicle: saline sonified 105 % of control | [2] 97 % of control | dose: 200.0 mg/kg/injection, schedule: Q01DX009 (ip), vehicle: saline sonified 97 % of control | [4] 95 % of control | dose: 400.0 mg/kg/injection, schedule: Q01DX009 (ip), vehicle: saline sonified 102 % of control | [6] 105 % of control

N=C(N)CC(=O)CC(=N)N
inactive: [13] 91 % of control | [1] 91 % of control | [3] 98 % of control

Clc1cc(Cl)cc(N=Nc2ccccc2)c1
inactive: dose: 100.0 mg/kg/injection, schedule: Q04DX003 (ip), vehicle: Klucel (hydroxypropylcellulose) (HPC) 102 % of control | dose: 200.0 mg/kg/injection, schedule: Q04DX003 (ip), vehicle: Klucel (hydroxypropylcellulose) (HPC) 103 % of control | dose: 400.0 mg/kg/injection, schedule: Q04DX003 (ip), vehicle: Klucel (hydroxypropylcellulose) (HPC) 103 % of control

Clc1nc(Cl)c(Cl)nc1Cl
inactive: dose: 25.0 mg/kg/injection, schedule: Q01DX009 (ip), vehicle: saline with Tween-80 102 % of control | dose: 50.0 mg/kg/injection, schedule: Q01DX009 (ip), vehicle: saline with Tween-80 100 % of control | dose: 100.0 mg/kg/injection, schedule: Q01DX009 (ip), vehicle: saline with Tween-80 100 % of control | dose: 200.0 mg/kg/injection, schedule: Q01DX009 (ip), vehicle: saline with Tween-80 110 % of control | dose: 400.0 mg/kg/injection, schedule: Q01DX009 (ip), vehicle: saline with Tween-80 96 % of control

CCCCCCCCCC(=O)N1C(C)CCC1C (stereo not given)
inactive: dose: 100.0 mg/kg/injection, schedule: Q04DX002 (ip), vehicle: other 103 % of control | dose: 200.0 mg/kg/injection, schedule: Q04DX002 (ip), vehicle: other 107 % of control

C1CC2CC1C1OC21 (stereo not given)
inactive: [14] 103 % of control | [8] 100 % of control | dose: 100.0 mg/kg/injection, schedule: Q01DX009 (ip), vehicle: other 100 % of control | [9] 105 % of control | dose: 200.0 mg/kg/injection, schedule: Q01DX009 (ip), vehicle: other 101 % of control | [10] 103 % of control | dose: 400.0 mg/kg/injection, schedule: Q01DX009 (ip), vehicle: other 94 % of control

Cc1ccc(N=Nc2ccc(C)cc2NC(=O)Nc2ccccc2C(F)(F)F)cc1
inactive: [15] 92 % of control | [16] 90 % of control | [17] 90 % of control

CSCCCN
inactive: [1] 99 % of control | [2] 102 % of control | [3] 95 % of control | [4] 104 % of control | [5] 95 % of control | [6] 96 % of control

Sc1ccccc1-n1c(-c2ccccc2)ccc1-c1ccccc1
inactive: [14] 96 % of control | [8] 93 % of control | [9] 98 % of control | [10] 87 % of control

Cc1cc(N=Cc2ccc(Cl)cc2)c(N=Cc2ccc(Cl)cc2)cc1C
inactive: dose: 100.0 mg/kg/injection, schedule: Q01DX005 (ip), vehicle: Klucel (hydroxypropylcellulose) (HPC) 99 % of control | [15] 108 % of control | [18] 95 % of control | dose: 200.0 mg/kg/injection, schedule: Q01DX005 (ip), vehicle: Klucel (hydroxypropylcellulose) (HPC) 96 % of control | [16] 115 % of control | [19] 95 % of control | dose: 400.0 mg/kg/injection, schedule: Q01DX005 (ip), vehicle: Klucel (hydroxypropylcellulose) (HPC) 92 % of control | [17] 97 % of control | [20] 95 % of control

Nc1nc2c(c(-c3ccccc3)n1)CN(c1ccc(Br)cc1)C2=O
inactive: [13] 95 % of control | [1] 92 % of control | [2] 90 % of control | [3] 92 % of control | [4] 95 % of control | [6] 90 % of control

Cc1ccc(N=C(C(=Nc2ccc(C)cc2)c2ccccc2)c2ccccc2)cc1
inactive: [11] 91 % of control | [12] 90 % of control | dose: 400.0 mg/kg/injection, schedule: Q04DX003 (ip), vehicle: saline with Tween-80 88 % of control

Cc1ccc(S(=O)(=O)OC(C(F)(F)F)C(F)(F)F)cc1
inactive: [18] 97 % of control | [19] 90 % of control | [20] 101 % of control
